# Measured values from US20110105564A1, “THIENYLPYRIDYLCARBOXAMIDES” (Bayer CropScience AG, priority 2005, published 2011).
# Assay: logP determination by HPLC on a reverse-phase column (EEC Directive 79/831 Annex V.A8)
# Type: physicochemical
# Conditions: reverse-phase HPLC column (C 18); acidic range pH 2.3; 0.1% aqueous phosphoric acid and acetonitrile, linear gradient 10% to 90% acetonitrile; C 18 column; 43° C.
# Protocol: The logP values given in the Tables and Preparation Examples above are determined in accordance with EEC Directive 79/831 Annex V.A8 by HPLC (High Performance Liquid Chromatography) on a reverse-phase column (C 18). Temperature: 43° C. The determination is carried out in the acidic range at pH 2.3 using the mobile phases 0.1% aqueous phosphoric acid and acetonitrile; linear gradient from 10% acetonitrile to 90% acetonitrile. Calibration is carried out using unbranched alkan-2-ones (having 3 to 16 carbon atoms), with known logP values (determination of the logP values by the retention times using linear interpolation between two successive alkanones).
row,SMILES,chromatographic logP
1,"O=C(Nc1ccsc1-c1ccc(Br)cn1)c1cccnc1Cl [Example 1, N-[2-(5-bromopyridin-2-yl)-3-thienyl]-2-chloronicotinamide]",2.25
2,"Nc1ccsc1-c1ccc(Br)cn1 [Example (III-1), 2-(5-bromopyridin-2-yl)thiophene-3-amine]",0.87
3,"CC(C)(C)OC(=O)Nc1ccsc1I [Example (VI-1), tert-butyl (2-iodo-3-thienyl)carbamate]",2.43
4,"CC(C)(C)OC(=O)Nc1ccsc1-c1ccc(Br)cn1 [Example (III-a-1), tert-butyl[2-(5-bromopyridin-2-yl)-3-thienyl]carbamate]",3.27
